Patent publication US5614526A, “Use of phenoxy-piperzine derivatives” (Hoffmann-La Roche Inc., priority 1995, dated 1997)

Assays:
dopamine-D4 receptor = target: T1, dopamine-D4 receptor (Homo sapiens, UniProt P21917); test: Binding at the D4 receptor, [3H]spiperone displacement, membranes of D4-CHO cells; conditions: room temperature, 90 minutes
T1 construct: expressed in transfected cells; host or cells: CHO (Chinese Hamster Ovary) cells, D4-CHO; crude membranes
T1 sequence (P21917 1-419): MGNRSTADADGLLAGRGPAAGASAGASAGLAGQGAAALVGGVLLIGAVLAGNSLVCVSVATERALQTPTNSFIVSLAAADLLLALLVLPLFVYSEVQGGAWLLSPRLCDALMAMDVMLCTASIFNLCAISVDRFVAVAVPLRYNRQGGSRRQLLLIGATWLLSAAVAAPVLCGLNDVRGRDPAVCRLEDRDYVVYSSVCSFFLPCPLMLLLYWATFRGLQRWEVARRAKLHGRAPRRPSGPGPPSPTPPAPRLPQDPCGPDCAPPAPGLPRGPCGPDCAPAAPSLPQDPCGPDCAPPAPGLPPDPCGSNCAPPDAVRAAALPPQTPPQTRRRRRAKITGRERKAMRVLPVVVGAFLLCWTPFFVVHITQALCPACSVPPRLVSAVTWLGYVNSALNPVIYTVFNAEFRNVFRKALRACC
Method: Compounds of formula I were characterized by their binding behavior at the D4 receptor. CHO cells (Chinese Hamster Ovary) were used in the test. Crude membranes were isolated by ultracentrifugation from D4 -CHO and D2 -CHO cells and were stored at -80° C. After thawing and homogenizing in a buffer solution (50mM Tris, 1 mM EDTA, 5 mM KCl, 1.5 mM CaCl2, 4 mM MgCl2, pH 7.4) they were incubated at room temperature for 90 minutes with 200 pM [^3 H] spiperone and an increasing concentration (1×10^-11 M to 1×10^-4 M) of test compound. A non-specific binding was established by incubating in the presence of 1×10^-5 M (+)-butaclamol. The unbound radioligand was removed by filtration through a GF/C glass filter and the bound radioactivity was determined by scintillation in a Packard TopCount. […] The calculation of the value was effected with ligand.

D2 receptor = test: Binding at the D2 receptor, [3H]spiperone displacement, membranes of D2-CHO cells (selectivity vs. D4); conditions: ratio of the Ki values at the D2 receptor and at the D4 receptor
Method: CHO cells (Chinese Hamster Ovary) were used in the test. Crude membranes were isolated by ultracentrifugation from D4 -CHO and D2 -CHO cells and were stored at -80° C. After thawing and homogenizing in a buffer solution (50mM Tris, 1 mM EDTA, 5 mM KCl, 1.5 mM CaCl2, 4 mM MgCl2, pH 7.4) they were incubated at room temperature for 90 minutes with 200 pM [^3 H] spiperone and an increasing concentration (1×10^-11 M to 1×10^-4 M) of test compound. A non-specific binding was established by incubating in the presence of 1×10^-5 M (+)-butaclamol. The unbound radioligand was removed by filtration through a GF/C glass filter and the bound radioactivity was determined by scintillation in a Packard TopCount.
Compounds of formula I were compared with respect to their D2 receptor activity.

| Structure (SMILES) | Ki (dopamine-D4 receptor; Table 1, 200 pM [3H]spiperone) | Ki (dopamine-D4 receptor; Table 2, 200 pM [3H]spiperone) | Sel. vs. D2 (D2 receptor) |
| --- | --- | --- | --- |
| COc1ccccc1N1CCN(CC(O)COc2ccccc2NC(C)=O)CC1 (single isomer, unassigned) [12(-), [-]-N-[2-[2-Hydroxy-3-[4-(2-methoxy-phenyl)-piperazin-1-yl]-propoxy]phenyl]-acetamide] | < 100 nM | – | – |
| COc1cc(O)ccc1N1CCN(CC(O)COc2ccccc2NC(C)=O)CC1 (stereo not drawn) [Compound 25] | – | 10.2 nM | 1370 |
| NC(=O)c1ccccc1OCC(O)CN1CCN(c2ccccc2)CC1 (stereo not drawn) [Compound 4, 2-[2-Hydroxy-3-(4-phenyl-piperazin-1-yl)-propoxy]-benzamide] | < 100 nM | – | – |
| CC(=O)Nc1ccccc1OCC(O)CN1CCN(c2ccccc2[N+](=O)[O-])CC1 (stereo not drawn) [Compound 29] | – | 8.7 nM | 360 |
| OC(COc1ccccc1)CN1CCN(c2ccccc2)CC1 (stereo not drawn) [Compound 1, 1-Phenoxy-3-(4-phenyl-piperazin-1-yl)-propan-2-ol] | < 100 nM | – | – |
| Nc1ccccc1OCC(O)CN1CCN(c2ccccc2)CC1 (stereo not drawn) [Compound 2, 1-(2-Amino-phenoxy)-3-(4-phenyl-piperazin-1-yl)-propan-2-ol] | < 100 nM | – | – |
| COc1ccccc1N1CCN(CC(O)COc2ccc(C)cc2NC(C)=O)CC1 (stereo not drawn) [Compound 19, N-[2-[2-Hydroxy-3-[4-(2-methoxy-phenyl)-piperazin-1-yl]-proxpoxy]-5-methyl-phenyl]-acetamide] | < 100 nM | – | – |
| CCCCCC(=O)Nc1ccccc1OCC(O)CN1CCN(c2ccccc2OC)CC1 (stereo not drawn) [Compound 14, Hexanoic acid [2-[2-hydroxy-3-[4-(2-methoxy-phenyl)-piperazin-1-yl]propoxy]-phenyl]-amide] | < 100 nM | – | – |
| COc1ccccc1N1CCN(CC(O)COc2ccccc2NC(C)=O)CC1 (racemic) [10(rac), N-[2-[2-Hydroxy-3-[4-(2-methoxy-phenyl)-piperazin-1-yl]-propoxy]-phenyl]-acetamide] | < 100 nM | – | – |
| COc1ccccc1N1CCN(CC(O)COc2ccccc2NC(=O)c2ccco2)CC1 (stereo not drawn) [Compound 17, Furan-2-carboxylic acid [2-[2hydroxy-3-[4-(2-methoxy-phenyl)piperazin-1-yl]-propoxy]-phenyl]-amide] | < 100 nM | – | – |
| CCC(=O)Nc1ccccc1OCC(O)CN1CCN(c2ccccc2)CC1 (stereo not drawn) [Compound 24] | – | 29 nM | 233 |
| COc1ccccc1N1CCN(CC(O)COc2ccc([N+](=O)[O-])cc2NC(C)=O)CC1 (stereo not drawn) [Compound 27] | – | 15 nM | 112 |
| COc1ccccc1N1CCN(CC(O)COc2ccccc2NC(C)=O)CC1 (single isomer, unassigned) [11(+), [+]-N-[2-[2-Hydroxy-3-[4-(2-methoxy-phenyl)-piperazin-1-yl]-propoxy]phenyl]-acetamide] | < 100 nM | – | – |
| CC(=O)Nc1ccccc1OCC(O)CN1CCN(c2ccccc2O)CC1 (stereo not drawn) [Compound 8, N-[2-[2-Hydroxy-3-[4-(2-hydroxy-phenyl)-piperazin-1-yl]-propoxy]-phenyl]-acetamide] | < 100 nM | – | – |
| OC(COc1cccc(C(F)(F)F)c1)CN1CCN(c2ccc(Cl)cc2)CC1 (stereo not drawn) [Compound 5, 1-[4-(4-Chloro-phenyl)-piperazin-1-yl]-3-(3-trifluoro-methyl-phenoxy)-propan-2-ol] | < 100 nM | – | – |
| COc1ccccc1N1CCN(CC(O)COc2ccccc2NS(C)(=O)=O)CC1 (stereo not drawn) [Compound 26] | – | 3.2 nM | 177 |
| CC(=O)Nc1ccccc1OCC(O)CN1CCN(c2ccccc2C)CC1 (stereo not drawn) [Compound 6, N-[2-[2-Hydroxy-3-(4-o-tolyl-piperazin-1-yl)-propoxy]-phenly]-acetamide] | < 100 nM | – | – |
| C/C=C/C(=O)Nc1ccccc1OCC(O)CN1CCN(c2ccccc2OC)CC1 (single isomer, unassigned) [Compound 16, [+]-(E)-But-2-enolic acid [2-[2-hydroxy-3-[4-(2-methoxy-phenyl)-piperazin-1-yl]-propoxy]-phenyl]-amide] | < 100 nM | – | – |
| COc1ccccc1N1CCN(CC(O)COc2ccccc2NC(N)=O)CC1 (stereo not drawn) [Compound 18, [2-[2-Hydroxy-3-[4-(2-methoxy-phenyl)-piperazin-1-yl]propoxy]-phenyl]-urea] | < 100 nM | – | – |
| CC(=O)c1ccccc1OCC(O)CN1CCN(c2ccccc2)CC1 (stereo not drawn) [Compound 3, 1-[2-[2-Hydroxy-3-(4-phenyl-piperazin-1-yl)-propoxy]-phenyl]-ethanone] | < 100 nM | – | – |
| CCC(=O)Nc1ccccc1OCC(O)CN1CCN(c2ccccc2OC)CC1 (stereo not drawn) [Compound 13, N-[2-[2-Hydroxy-3-[4-(2-methoxy-phenyl)-piperazin-1-yl]-propoxy]-phenyl]propionamide] | < 100 nM | – | – |
| COc1ccccc1N1CCN(CC(O)COc2ccccc2N)CC1 (single isomer, unassigned) [9(+), [+]-1-(2-Amino-phenoxy)-3-[4(2-methoxy-phenyl)-piperazin-1-yl]-propan-2-ol] | < 100 nM | – | – |
| CCOc1ccccc1N1CCN(CC(O)COc2ccccc2NC(=O)CC)CC1 (stereo not drawn) [Compound 21, N-[2-[3-[4-(2-Ethoxy-phenyl)-piperazin-1-yl]-2-hydroxy-propoxy]-phenyl]propionamide] | < 100 nM | – | – |
| Cc1cccc(OCC(O)CN2CCN(c3ccccc3)CC2)c1 (stereo not drawn) [Compound 23] | – | 9.6 nM | 300 |
| COc1ccccc1N1CCN(CC(COc2ccccc2NC(C)=O)OC(C)=O)CC1 (stereo not drawn) [Compound 30, Ethyl 2-(2-acetylamino-phenoxy)-1-[4-(2-methoxy-phenyl)-piperazin-1-ylmethyl]-acetate] | < 100 nM | – | – |
| COc1ccccc1N1CCN(CC(O)COc2ccccc2NC(=O)C(C)(C)C)CC1 (stereo not drawn) [Compound 15, N-[2-[2-Hydroxy-3-[4-(2-methoxy-phenyl)-piperazin-1-yl]-propoxy]-phenyl]-2,2-dimethyl-propionamide] | < 100 nM | – | – |
| COc1ccccc1N1CCN(CC(O)COc2cc(C)ccc2NC(C)=O)CC1 (stereo not drawn) [Compound 20, N-[2-[2-Hydroxy-3-[4-(2-methoxy-phenyl)-piperazin-1-yl]-propoxy]-4-methyl-phenyl]-acetamide] | < 100 nM | – | – |
| CC(=O)Nc1ccccc1OCC(O)CN1CCN(c2ccccc2C(F)(F)F)CC1 (stereo not drawn) [Compound 7, N-[2-[2-Hydroxy-3-[4-(2-trifluoromethyl-phenyl)-piperazin-1yl]-propoxy]phenyl]-acetamide] | < 100 nM | – | – |
| COc1ccccc1N1CCN(CC(COc2ccccc2NC(C)=O)OC(C)=O)CC1 (single isomer, unassigned) [31(+), Ethyl [+]-2-(2-acetylamino-phenoxy)-1-[4-(2-methoxy-phenyl)-piperazin-1-ylmethyl]acetate] | < 100 nM | – | – |
| Nc1ccccc1OCC(O)CN1CCN(c2ccccc2[N+](=O)[O-])CC1 (stereo not drawn) [Compound 22, 1-(2-Amino-phenoxy)-3-[4-(2-nitro-phenyl)-piperazin-1-yl]-propan-2-ol] | < 100 nM | – | – |
